{"source": "patent US20120136003A1", "about": "“COMPOUNDS, COMPOSITIONS AND METHODS COMPRISING 1,3,4-OXADIAZOLE DERIVATIVES” (Institute For Oneworld Health, priority 2009, published 2012)", "target": "CFTR (Homo sapiens, UniProt P13569)", "sequence (P13569 whole entry)": "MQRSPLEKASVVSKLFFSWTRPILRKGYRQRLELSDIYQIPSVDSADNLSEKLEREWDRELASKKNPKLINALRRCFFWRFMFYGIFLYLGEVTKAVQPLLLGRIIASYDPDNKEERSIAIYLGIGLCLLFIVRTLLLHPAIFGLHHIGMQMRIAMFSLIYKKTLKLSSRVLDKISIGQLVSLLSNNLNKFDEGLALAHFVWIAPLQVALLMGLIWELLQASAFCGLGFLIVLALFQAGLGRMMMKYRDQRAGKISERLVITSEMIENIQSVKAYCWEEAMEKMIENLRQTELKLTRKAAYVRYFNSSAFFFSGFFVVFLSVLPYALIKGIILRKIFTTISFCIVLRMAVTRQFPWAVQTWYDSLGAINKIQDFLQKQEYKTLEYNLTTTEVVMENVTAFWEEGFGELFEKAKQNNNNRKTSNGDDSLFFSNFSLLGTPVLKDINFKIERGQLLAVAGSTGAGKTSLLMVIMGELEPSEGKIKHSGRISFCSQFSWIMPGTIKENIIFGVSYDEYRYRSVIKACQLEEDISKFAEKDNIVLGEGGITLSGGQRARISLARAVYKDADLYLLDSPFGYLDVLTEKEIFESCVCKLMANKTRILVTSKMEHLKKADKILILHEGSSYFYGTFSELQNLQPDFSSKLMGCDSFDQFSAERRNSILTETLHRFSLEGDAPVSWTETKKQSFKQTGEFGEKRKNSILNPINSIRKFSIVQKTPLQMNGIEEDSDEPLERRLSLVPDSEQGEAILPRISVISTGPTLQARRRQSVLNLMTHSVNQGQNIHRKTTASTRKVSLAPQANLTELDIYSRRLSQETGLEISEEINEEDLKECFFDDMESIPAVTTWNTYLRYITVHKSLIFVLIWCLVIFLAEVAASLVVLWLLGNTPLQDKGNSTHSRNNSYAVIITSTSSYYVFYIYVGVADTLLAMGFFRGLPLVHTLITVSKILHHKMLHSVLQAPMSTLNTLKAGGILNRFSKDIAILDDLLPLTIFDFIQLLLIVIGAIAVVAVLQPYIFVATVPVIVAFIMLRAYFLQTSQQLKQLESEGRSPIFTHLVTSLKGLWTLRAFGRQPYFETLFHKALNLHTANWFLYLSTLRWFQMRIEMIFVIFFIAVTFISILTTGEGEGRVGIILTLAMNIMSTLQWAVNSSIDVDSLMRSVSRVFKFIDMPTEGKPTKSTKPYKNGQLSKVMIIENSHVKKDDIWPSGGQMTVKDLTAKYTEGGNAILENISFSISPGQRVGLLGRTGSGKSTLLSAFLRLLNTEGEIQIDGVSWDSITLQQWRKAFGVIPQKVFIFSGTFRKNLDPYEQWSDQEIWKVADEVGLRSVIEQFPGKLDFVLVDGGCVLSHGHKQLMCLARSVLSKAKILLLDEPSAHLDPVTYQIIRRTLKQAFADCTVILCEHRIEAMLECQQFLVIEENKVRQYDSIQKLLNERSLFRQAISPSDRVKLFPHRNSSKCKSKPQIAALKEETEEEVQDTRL", "assay": "T84 assay (FLIPR membrane potential)", "type": "cell-based", "design": "Human colonic T84 cells are acquired from the European Collection of Cell Cultures (ECACC); host or cells: T84 human colonic cells", "method": "(§1) For example, Human colonic T84 cells can be acquired from the European Collection of Cell Cultures (ECACC) and grown in standard culture conditions as described by the supplier. On the day before assay 25,000 T84 cells per well are plated into standard black walled, clear bottom 384-well assay plates in standard growth medium consisting of DMEM:F12 with 10% FBS and incubated overnight. On the day of the assay the plates are washed using a standard assay buffer (HBSS with 10 mM Hepes) and incubated for 15 minutes in serum free cell culture medium before the addition of a commercially available membrane potential sensitive fluorescent dye (FLIPR Red membrane potential dye, Molecular Devices Corporation). T84 cells are incubated with the FLIPR Red membrane potential dye for 45 minutes in the presence and absence of test compound before being transferred to a commercially available fluorescence imaging plate reader (FLIPR384, Molecular Devices Corporation). Fluorescence levels are monitored continuously every second for 150 seconds; after an initial 10 second baseline, CFTR channel activity is stimulated through the addition of 10 μM forskolin in the presence of 100 μM of the phosphodiesterase inhibitor iso-butyl-methylxanthine (IBMX). Addition of the forskolin leads to the activation of intracellular adenylyl cylase 1, elevating cAMP levels and results in the phosphorylation and opening of CFTR anion channels. CFTR channel opening causes chloride ion efflux and subsequent depolarization of the cells, which is measured by an increase in fluorescence. CFTR inhibitor compounds prevent cell depolarization and the associated increase in fluorescence.\nas §1, with “Human colonic” for “For example, Human colonic”, “T84 cells are acquired from” for “T84 cells can be acquired from”, “(ECACC) and are grown in” for “(ECACC) and grown in”, “with 10 Mm Hepes) and” for “with 10 mM Hepes) and”, “1, elevating Camp levels and” for “1, elevating cAMP levels and”"}
{"smiles": "O=C(NCc1cc(F)cc(C(F)(F)F)c1)c1nnc(-c2cc(Cl)c(O)c(Cl)c2)o1", "note": "[Compound 21, 5-(3,5-dichloro-4-hydroxyphenyl)-N-(3-fluoro-5-(trifluoromethyl)benzyl)-1,3,4-oxadiazole-2-carboxamide]", "values": [{"measurement": "IC50", "value": 13.6, "unit": "µM"}]}
{"smiles": "CC(NC(=O)c1nnc(-c2cc(Cl)c(O)c(Cl)c2)o1)c1ccc(Cl)cc1", "note": "(centres unmarked) [Compound 26, N-(1-(4-chlorophenyl)ethyl)-5-(3,5-dichloro-4-hydroxyphenyl)-1,3,4-oxadiazole-2-carboxamide]", "values": [{"measurement": "IC50", "value": 27.8, "unit": "µM"}]}
{"smiles": "O=C(c1nnc(-c2cccc(NS(=O)(=O)C(F)(F)F)c2)o1)N1CCN(c2cccc(C(F)(F)F)c2)CC1", "note": "[Compound 11, 1,1,1-trifluoro-N-(3-(5-(4-(3-(trifluoromethyl)phenyl)piperazine-1-carbonyl)-1,3,4-oxadiazol-2-yl)phenyl)methanesulfonamide]", "values": [{"measurement": "IC50", "value": 13.4, "unit": "µM"}]}
{"smiles": "O=C(NCc1ccc(OC(F)(F)F)cc1)c1nnc(-c2cc(Cl)c(O)c(Cl)c2)o1", "note": "[Compound 22, 5-(3,5-dichloro-4-hydroxyphenyl)-N-(4-(trifluoromethoxy)benzyl)-1,3,4-oxadiazole-2-carboxamide]", "values": [{"measurement": "IC50", "value": 14.3, "unit": "µM"}]}
{"smiles": "O=C(c1nnc(-c2ccc(NS(=O)(=O)C(F)(F)F)cc2)o1)N1CCN(c2cccc(C(F)(F)F)c2)CC1", "note": "[Compound 25, 1,1,1-trifluoro-N-(4-(5-(4-(3-(trifluoromethyl)phenyl)piperazine-1-carbonyl)-1,3,4-oxadiazol-2-yl)phenyl)methanesulfonamide]", "values": [{"measurement": "IC50", "value": 20.6, "unit": "µM"}]}
{"smiles": "O=C(NCC(c1ccccc1)c1ccccc1)c1nnc(-c2cc(Cl)c(O)c(Cl)c2)o1", "note": "[Compound 15, 5-(3,5-dichloro-4-hydroxyphenyl)-N-(2,2-diphenylethyl)-1,3,4-oxadiazole-2-carboxamide]", "values": [{"measurement": "IC50", "value": 5.77, "unit": "µM"}]}
{"smiles": "CN(Cc1ccc(Cl)c(Cl)c1)C(=O)c1nnc(-c2cccc(NS(=O)(=O)C(F)(F)F)c2)o1", "note": "[Compound 10, N-(3,4-dichlorobenzyl)-N-methyl-5-(3-(trifluoromethylsulfonamido)phenyl)-1,3,4-oxadiazole-2-carboxamide]", "values": [{"measurement": "IC50", "value": 11.8, "unit": "µM"}]}
{"smiles": "O=C(NCc1ccc(F)c(C(F)(F)F)c1)c1nnc(-c2cc(Cl)c(O)c(Cl)c2)o1", "note": "[Compound 24, 5-(3,5-dichloro-4-hydroxyphenyl)-N-(4-fluoro-3-(trifluoromethyl)benzyl)-1,3,4-oxadiazole-2-carboxamide]", "values": [{"measurement": "IC50", "value": 19.7, "unit": "µM"}]}
{"smiles": "CN(Cc1cccc(Oc2ccccc2)c1)C(=O)c1nnc(-c2cc(Cl)c(O)c(Cl)c2)o1", "note": "[Compound 13, 5-(3,5-dichloro-4-hydroxyphenyl)-N-methyl-N-(3-phenoxybenzyl)-1,3,4-oxadiazole-2-carboxamide]", "values": [{"measurement": "IC50", "value": 3.26, "unit": "µM"}]}
{"smiles": "CN(Cc1ccc(Cl)c(Cl)c1)C(=O)c1nnc(-c2cc(Cl)c(O)c(Cl)c2)o1", "note": "[Compound 12, 5-(3,5-dichloro-4-hydroxyphenyl)-N-(3,4-dichlorobenzyl)-N-methyl-1,3,4-oxadiazole-2-carboxamide]", "values": [{"measurement": "IC50", "value": 1.88, "unit": "µM"}]}
{"smiles": "O=C(NCc1ccc(Oc2ccccc2)cc1)c1nnc(-c2cccc(NS(=O)(=O)C(F)(F)F)c2)o1", "note": "[Compound 7, N-(4-phenoxybenzyl)-5-(3-(trifluoromethylsulfonamido)phenyl)-1,3,4-oxadiazole-2-carboxamide]", "values": [{"measurement": "IC50", "value": 15.8, "unit": "µM"}]}
{"smiles": "O=C(NCc1cccc(OC(F)(F)F)c1)c1nnc(-c2cc(Cl)c(O)c(Cl)c2)o1", "note": "[Compound 1, 5-(3,5-dichloro-4-hydroxyphenyl)-N-(3-(trifluoromethoxy)benzyl)-1,3,4-oxadiazole-2-carboxamide]", "values": [{"measurement": "IC50", "value": 17.4, "unit": "µM"}]}
{"smiles": "O=C(NCc1cccc(Oc2ccccc2)c1)c1nnc(-c2cc(Cl)c(O)c(Cl)c2)o1", "note": "[Compound 14, 5-(3,5-dichloro-4-hydroxyphenyl)-N-(3-phenoxybenzyl)-1,3,4-oxadiazole-2-carboxamide]", "values": [{"measurement": "IC50", "value": 5.37, "unit": "µM"}]}
{"smiles": "CC(C)(C)c1ccc(CNC(=O)c2nnc(-c3cccc(NS(=O)(=O)C(F)(F)F)c3)o2)cc1", "note": "[Compound 9, N-(4-tert-butylbenzyl)-5-(3-(trifluoromethylsulfonamido)phenyl)-1,3,4-oxadiazole-2-carboxamide]", "values": [{"measurement": "IC50", "value": 19, "unit": "µM"}]}
